# Experimental data published in patent US20240400584A1, “COMPOUNDS AND METHODS FOR MODULATING SPLICING” (REMIX THERAPEUTICS INC., priority 2021, published 2024).
# What was measured:
# [1] = tested on: HiBit-tagged MYB in K562 cells; experiment: HiBiT protein abundance assay, MYB; format: cell-based, human; details: HiBiT-modified K562 cells, 24 hours, luminescence
# Experimental: (§1) Compounds described herein were used to screen for effects on quantitative protein abundance using a HiBit assay system (Promega). Quantitative protein abundance was determined by measuring the protein levels of HiBit-tagged protein targets expressed in cell culture via luminescence using the Nano-Glo HiBiT Lytic Detection System, which uses a split complementation assay format to reconstitute NanoBiT enzyme to generate a luminescent signal. A protein abundance assay was developed such that endogenous protein targets could be modified with the HiBiT peptide tag and their abundance could be assessed after compound treatment. Briefly, K562 cell lines containing a HiBiT-modification were treated with various compounds described herein (e.g., compounds of Formulas (I)). After treatment for 24 hours, the protein abundance of a specific target was determined by measuring luminescence.
# (§2) Cells were maintained in IMDM with 10% FBS. Before the assay, cells were diluted with […] growth media (IMDM+[…] media) and were seeded in a 384-well plate at a density of 10000 cells/well (for each cell line listed in Table 8). Each compound was prepared as a 10-point 3-fold serial dilution in DMSO with the top dose at a final concentration of 10 μM in the well. Unmodified K562 cells were added at the previously specified density with DMSO to serve as an assay baseline and positive control (PC) and DMSO only with the respective modified cell lines was added to the negative control (NC) columns. Final DMSO concentration was kept at or below 0.25% o. Treated cell plates were placed in an incubator at 37° C. with […] for 24 hours. After 24 hours, 25 μL of Complete HiBit Lytic reagent was added to each well at room temperature (e.g. one plate requiring 10 mL Lytic Buffer, 100 μL LgBiT Protein, 200 μL Lytic Substrate), shaken for 5 minutes at 600 RPM, then left to sit for 10 minutes for signal to stabilize before reading on a Spark Cyto plate reader (Tecan) with a 500 ms measurement time.
# (§3) To determine compound effects on protein abundance of each target in Table 9, the percent response for each respective cell line was calculated at each compound concentration as follows:
# (§4) For the normalized response at each concentration, a four-parameter logistical regression was fit to the data and the response was interpolated at the […] to determine a concentration for protein abundance at 50% o (IC50) the untreated control.
# [2] = tested on: MYB; experiment: RT-qPCR splicing assay, MYB AJ/CJ mRNA; format: cell-based; details: Homo sapiens, A673 or K562 cells, 24 hours; for IC50: decrease in canonical junction mRNA; for AC50: increase in alternative junction mRNA
# Method in brief: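 Following 24 h compound exposure at 37 °C (11 points, 3-fold, highest 10 uM; DMSO ≤0.25%), A673 or K562 lysates underwent RT-qPCR for exon-inclusion (AJ) and canonical (CJ) junctions of HTT and MYB. Relative quantification used housekeeping-gene ΔCt and DMSO-normalized ΔΔCt, converted to percentage response.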
# [3] = tested on: HiBit-tagged HTT in K562 cells; experiment: HiBiT protein abundance assay, HTT; format: cell-based, human; details: HiBiT-modified K562 cells, 24 hours, luminescence
# Experimental: as §1, §2, §3, §4
SMILES,IC50 [1] [nM],IC50 [2] [nM],AC50 [2] [nM],IC50 [3] [nM]
C[C@@H]1C[C@H](N(C)c2ccc3c(c2)OCc2cc(-c4cn[nH]c4)ccc2-3)CCN1 [Compound 101],1000 to 10000,> 10000,1000 to 10000,1000 to 10000
C[C@H]1C[C@H](N(C)c2ccc3c(c2)OCc2cc(-c4cn[nH]c4)ccc2-3)CCN1 [Compound 102],1000 to 10000,> 10000,1000 to 10000,1000 to 10000
CN(c1ccc2c(c1)OCc1cc(-c3cn[nH]c3)ccc1-2)[C@@H]1C[C@H]2CC[C@@H](C1)N2 [Compound 104],1000 to 10000,> 10000,> 10000,1000 to 10000
CN(c1ccc2c(c1)OCc1cc(-n3cccn3)ccc1-2)[C@@H]1C[C@H]2CC[C@@H](C1)N2 [Compound 105],1000 to 10000,> 10000,> 10000,1000 to 10000
CN(c1ccc2c(n1)OCc1cc(-c3cn[nH]c3)ccc1-2)[C@@H]1C[C@H]2CC[C@@H](C1)N2 [Compound 108],< 100,100 to 1000,1000 to 10000,< 100
CN(c1ccc2c(c1)CCOc1cc(-n3cccn3)ccc1-2)[C@@H]1C[C@H]2CC[C@@H](C1)N2 [Compound 113],1000 to 10000,> 10000,> 10000,> 10000
CN(c1ccc2c(n1)OCc1cc(-c3cn[nH]c3)ccc1-2)C1CCNCC1 [Compound 116],1000 to 10000,1000 to 10000,1000 to 10000,100 to 1000
CN(c1ccc2c(c1)COc1cc(-n3cccn3)ccc1-2)C1CC(C)(C)NC(C)(C)C1 [Compound 117],1000 to 10000,1000 to 10000,> 10000,1000 to 10000
CC1(C)CC(Nc2ccc3c(c2)COc2cc(-n4cccn4)ccc2-3)CC(C)(C)N1 [Compound 118],1000 to 10000,> 10000,> 10000,1000 to 10000
CN(c1ccc2c(n1)COc1cc(-c3cn[nH]c3)ccc1-2)[C@@H]1C[C@H]2CC[C@@H](C1)N2 [Compound 121],1000 to 10000,1000 to 10000,1000 to 10000,< 100
CN(c1ccc2c(n1)COc1cc(-n3cccn3)ccc1-2)[C@@H]1C[C@H]2CC[C@@H](C1)N2 [Compound 124],1000 to 10000,1000 to 10000,> 10000,1000 to 10000
CN(c1ccc2c(n1)COc1cc(-n3cccn3)ccc1-2)C1CC(C)(C)NC(C)(C)C1 [Compound 125],100 to 1000,> 10000,> 10000,1000 to 10000
CN(c1ccc2c(n1)CCOc1cc(-n3cccn3)ccc1-2)C1CC(C)(C)NC(C)(C)C1 [Compound 129],> 10000,> 10000,> 10000,> 10000
CC1(C)CC(Nc2ccc3c(n2)COc2cc(-n4cccn4)ccc2-3)CC(C)(C)N1 [Compound 134],1000 to 10000,1000 to 10000,> 10000,1000 to 10000
CN(c1cnc2c(n1)OCc1cc(-c3cn[nH]c3)ccc1-2)C1CC(C)(C)NC(C)(C)C1 [Compound 142],1000 to 10000,100 to 1000,1000 to 10000,100 to 1000
c1cc2c(cc1-c1cn[nH]c1)COc1nc(N[C@@H]3C[C@H]4CC[C@@H](C3)N4)cnc1-2 [Compound 143],1000 to 10000,100 to 1000,1000 to 10000,100 to 1000
CN(c1cnc2c(n1)OCc1cc(-c3cn[nH]c3)ccc1-2)[C@@H]1C[C@H]2CC[C@@H](C1)N2 [Compound 144],100 to 1000,100 to 1000,100 to 1000,< 100
CN(c1ccc2c(n1)OCCc1cc(-c3cn[nH]c3)ccc1-2)C1CC(C)(C)NC(C)(C)C1 [Compound 145],1000 to 10000,1000 to 10000,> 10000,1000 to 10000
CN(c1ccc2c(n1)OCCc1cc(-c3cn[nH]c3)ccc1-2)[C@@H]1C[C@H]2CC[C@@H](C1)N2 [Compound 146],1000 to 10000,> 10000,> 10000,1000 to 10000

SMILES,IC50 [1] [nM],IC50 [2] [nM],AC50 [2] [nM],IC50 [3] [nM]
CN(c1ccc2c(n1)OCc1cc(-c3cn[nH]c3)ccc1-2)C1CC(C)(C)NC(C)(C)C1 [Compound 147],100 to 1000,1000 to 10000,1000 to 10000,100 to 1000
CN(c1ccc2c(n1)OCc1cc(-n3cccn3)ccc1-2)C1CC(C)(C)NC(C)(C)C1 [Compound 148],1000 to 10000,1000 to 10000,1000 to 10000,1000 to 10000
CN(c1ccc2c(n1)OCc1cc(-n3cccn3)ccc1-2)[C@@H]1C[C@H]2CC[C@@H](C1)N2 [Compound 149],100 to 1000,100 to 1000,100 to 1000,100 to 1000
CN(c1ccc2c(n1)OCc1cc(-n3nccn3)ccc1-2)[C@@H]1C[C@H]2CC[C@@H](C1)N2 [Compound 151],100 to 1000,100 to 1000,100 to 1000,< 100
CN(c1ccc2c(n1)OCc1cc(-n3ccnn3)ccc1-2)[C@@H]1C[C@H]2CC[C@@H](C1)N2 [Compound 152],100 to 1000,100 to 1000,100 to 1000,< 100
CN(c1ccc2c(n1)OCc1cc(-c3ccn(C)c(=O)c3)ccc1-2)[C@@H]1C[C@H]2CC[C@@H](C1)N2 [Compound 153],< 100,100 to 1000,< 100,< 100
Cc1[nH]ncc1-c1ccc2c(c1)COc1nc(N(C)[C@@H]3C[C@H]4CC[C@@H](C3)N4)ccc1-2 [Compound 154],100 to 1000,100 to 1000,< 100,< 100
Cc1ncc(-c2ccc3c(c2)COc2nc(N(C)[C@@H]4C[C@H]5CC[C@@H](C4)N5)ccc2-3)o1 [Compound 155],100 to 1000,100 to 1000,100 to 1000,< 100
COc1cc(-c2ccc3c(c2)COc2nc(N(C)[C@@H]4C[C@H]5CC[C@@H](C4)N5)ccc2-3)ccn1 [Compound 156],100 to 1000,100 to 1000,100 to 1000,< 100
CN(c1ccc2c(n1)OCc1cc(-c3ccc(=O)[nH]c3)ccc1-2)[C@@H]1C[C@H]2CC[C@@H](C1)N2 [Compound 157],1000 to 10000,1000 to 10000,1000 to 10000,100 to 1000
CN(c1ccc2c(n1)OCc1cc(-c3ccc(=O)n(C)c3)ccc1-2)[C@@H]1C[C@H]2CC[C@@H](C1)N2 [Compound 158],100 to 1000,100 to 1000,1000 to 10000,< 100
COc1cc(-c2ccc3c(c2)COc2nc(N(C)[C@@H]4C[C@H]5CC[C@@H](C4)N5)ccc2-3)cnn1 [Compound 159],< 100,< 100,< 100,< 100
CN(c1ccc2c(n1)OCc1cc(-c3cnn(C)c(=O)c3)ccc1-2)[C@@H]1C[C@H]2CC[C@@H](C1)N2 [Compound 160],100 to 1000,100 to 1000,< 100,< 100
CN(c1ccc2c(n1)OCc1cc(-c3cnc(=O)[nH]c3)ccc1-2)[C@@H]1C[C@H]2CC[C@@H](C1)N2 [Compound 161],> 10000,> 10000,> 10000,> 10000
CN(c1ccc2c(n1)OCc1cc(-c3cc(=O)n(C)cn3)ccc1-2)[C@@H]1C[C@H]2CC[C@@H](C1)N2 [Compound 162],100 to 1000,100 to 1000,< 100,< 100
CN(c1ccc2c(n1)OCc1cc(-n3ccnc3)ccc1-2)[C@@H]1C[C@H]2CC[C@@H](C1)N2 [Compound 163],< 100,100 to 1000,< 100,< 100
Cc1cn(-c2ccc3c(c2)COc2nc(N(C)[C@@H]4C[C@H]5CC[C@@H](C4)N5)ccc2-3)cn1 [Compound 164],100 to 1000,100 to 1000,100 to 1000,< 100
CC1(C)CC(Nc2ccc3c(n2)OCc2cc(-n4cccn4)ccc2-3)CC(C)(C)N1 [Compound 165],100 to 1000,1000 to 10000,100 to 1000,< 100
